Test results published in patent publication US12331040B2 (Karyopharm Therapeutics Inc., priority 2013, dated 2025).

Columns and labels:
Assay in all cases: MTT cell proliferation assay
Format in all cases: cell-based
3T3 cells = settings: Mus musculus, NIH3T3, approximately 64-72 hours incubation, read-out: MTT Assay IC50 3T3
Method in brief: (§1)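 Cytotoxicity was measured by MTT: OD490 of the solubilized formazan after roughly 4 h with MTT reagent, reported as mean percent inhibition relative to the negative control. Test compounds covered eight concentrations between 1 nM and 30 μM, added to 5,000–10,000 cells per well that had attached overnight.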

MS751 cells = settings: Homo sapiens, MS751, MS751 cells; approximately 64-72 hours incubation; read-out: MTT Assay IC50 MS-751
Method in brief: as §1

Z138 cells = settings: Homo sapiens, Z-138, Z138 cells; approximately 64-72 hours incubation; read-out: MTT Assay IC50 Z-138
Method in brief: as §1

CC1(C)COCCN1C(=O)c1ccc(-c2cc(C(F)(F)F)c3oc(CNC(=O)/C=C/c4ccc(N)nc4)cc3c2)nc1 [Compound 569, (E)-3-(6-aminopyridin-3-yl)-N-((5-(5-(3,3-dimethylmorpholine-4-carbonyl)pyridin-2-yl)-7-(trifluoromethyl)benzofuran-2-yl)methyl)acrylamide]
IC50 (3T3 cells): > 10 µM | IC50 (MS751 cells): < 0.1 µM | IC50 (Z138 cells): < 0.1 µM

Nc1ccc(/C=C/C(=O)NCc2cc3cc(-c4ccc(C(=O)N5CC[C@H](F)C5)cn4)cc(C(F)(F)F)c3o2)cn1 [Compound 570, (S,E)-3-(6-aminopyridin-3-yl)-N-((5-(5-(3-fluoropyrrolidine-1-carbonyl)pyridin-2-yl)-7-(trifluoromethyl)benzofuran-2-yl)methyl)acrylamide]
IC50 (3T3 cells): > 10 µM | IC50 (MS751 cells): 0.1 to 5 µM | IC50 (Z138 cells): < 0.1 µM

CC1(O)CCN(C(=O)c2ccc(-c3cc(C(F)(F)F)c4oc(CNC(=O)/C=C/c5ccc(N)nc5)cc4c3)cc2)CC1 [Compound 571, (E)-3-(6-aminopyridin-3-yl)-N-((5-(4-(4-hydroxy-4-methylpiperidine-1-carbonyl)phenyl)-7-(trifluoromethyl)benzofuran-2-yl)methyl)acrylamide]
IC50 (3T3 cells): > 10 µM | IC50 (MS751 cells): 0.1 to 5 µM | IC50 (Z138 cells): < 0.1 µM

CC1(C)CN(C(=O)c2ccc(-c3cc(C(F)(F)F)c4oc(CNC(=O)/C=C/c5ccc(N)nc5)cc4c3)cc2)CCN1 [Compound 572, (E)-3-(6-aminopyridin-3-yl)-N-((5-(4-(3,3-dimethylpiperazine-1-carbonyl)phenyl)-7-(trifluoromethyl)benzofuran-2-yl)methyl)acrylamide]
IC50 (3T3 cells): 0.1 to 5 µM | IC50 (MS751 cells): < 0.1 µM | IC50 (Z138 cells): < 0.1 µM

Nc1ccc(/C=C/C(=O)NCc2cc3cc(-c4ccc(C(=O)N5CCCNCC5)cc4)cc(C(F)(F)F)c3o2)cn1 [Compound 573, (E)-N-((5-(4-(1,4-diazepane-1-carbonyl)phenyl)-7-(trifluoromethyl)benzofuran-2-yl)methyl)-3-(6-aminopyridin-3-yl)acrylamide]
IC50 (3T3 cells): > 10 µM | IC50 (MS751 cells): < 0.1 µM | IC50 (Z138 cells): < 0.1 µM

Nc1ccc(/C=C/C(=O)NCc2cc3cc(-c4ccc(C(=O)N5CCCOCC5)cc4)cc(C(F)(F)F)c3o2)cn1 [Compound 574, (E)-N-((5-(4-(1,4-oxazepane-4-carbonyl)phenyl)-7-(trifluoromethyl)benzofuran-2-yl)methyl)-3-(6-aminopyridin-3-yl)acrylamide]
IC50 (3T3 cells): > 10 µM | IC50 (MS751 cells): 0.1 to 5 µM | IC50 (Z138 cells): 0.1 to 5 µM

CC1(C)CNCCN1C(=O)c1ccc(-c2cc(C(F)(F)F)c3oc(CNC(=O)/C=C/c4ccc(N)nc4)cc3c2)cc1 [Compound 575, (E)-3-(6-aminopyridin-3-yl)-N-((5-(4-(2,2-dimethylpiperazine-1-carbonyl)phenyl)-7-(trifluoromethyl)benzofuran-2-yl)methyl)acrylamide]
IC50 (3T3 cells): > 10 µM | IC50 (MS751 cells): 0.1 to 5 µM | IC50 (Z138 cells): 0.1 to 5 µM

CN1CCN(C(=O)c2ccc(-c3cc(Cl)c4oc(CNC(=O)/C=C/c5ccc(N)nc5)cc4c3)cc2)CC1 [Compound 576, (E)-3-(6-aminopyridin-3-yl)-N-((7-chloro-5-(4-(4-methylpiperazine-1-carbonyl)phenyl)benzofuran-2-yl)methyl)acrylamide]
IC50 (3T3 cells): > 10 µM | IC50 (MS751 cells): 0.1 to 5 µM | IC50 (Z138 cells): 0.1 to 5 µM

Nc1ccc(/C=C/C(=O)NCc2cc3cc(-c4ccc(C(=O)N5CCNCC5)cn4)cc(C(F)(F)F)c3o2)cn1 [Compound 577, (E)-3-(6-aminopyridin-3-yl)-N-((5-(5-(piperazine-1-carbonyl)pyridin-2-yl)-7-(trifluoromethyl)benzofuran-2-yl)methyl)acrylamide]
IC50 (3T3 cells): > 10 µM | IC50 (MS751 cells): < 0.1 µM | IC50 (Z138 cells): < 0.1 µM

Cc1noc(C)c1C(O)c1ccc(-c2cc(Cl)c3oc(CNC(=O)/C=C/c4ccc(N)nc4)cc3c2)s1 (stereo not drawn) [Compound 578, (E)-3-(6-aminopyridin-3-yl)-N-((7-chloro-5-(5-((3,5-dimethylisoxazol-4-yl)(hydroxy)methyl)thiophen-2-yl)benzofuran-2-yl)methyl)acrylamide]
IC50 (3T3 cells): > 10 µM | IC50 (MS751 cells): 5 to 10 µM | IC50 (Z138 cells): 5 to 10 µM

Nc1ccc(/C=C/C(=O)NCc2cc3cc(-c4ccc(F)c(C(=O)N5CCOCC5)n4)cc(C(F)(F)F)c3o2)cn1 [Compound 579, (E)-3-(6-aminopyridin-3-yl)-N-((5-(5-fluoro-6-(morpholine-4-carbonyl)pyridin-2-yl)-7-(trifluoromethyl)benzofuran-2-yl)methyl)acrylamide]
IC50 (3T3 cells): > 10 µM | IC50 (MS751 cells): < 0.1 µM | IC50 (Z138 cells): < 0.1 µM

Nc1ccc(/C=C/C(=O)NCc2cc3cc(-c4cc(C(=O)N5CCOCC5)c(F)cn4)cc(C(F)(F)F)c3o2)cn1 [Compound 580, (E)-3-(6-aminopyridin-3-yl)-N-((5-(5-fluoro-4-(morpholine-4-carbonyl)pyridin-2-yl)-7-(trifluoromethyl)benzofuran-2-yl)methyl)acrylamide]
IC50 (3T3 cells): 5 to 10 µM | IC50 (MS751 cells): < 0.1 µM | IC50 (Z138 cells): < 0.1 µM

Nc1ccc(/C=C/C(=O)NCc2cc3cc(-c4ccc(F)c(C(=O)N5CCOCC5)n4)cc(Cl)c3o2)cn1 [Compound 581, (E)-3-(6-aminopyridin-3-yl)-N-((7-chloro-5-(5-fluoro-6-(morpholine-4-carbonyl)pyridin-2-yl)benzofuran-2-yl)methyl)acrylamide]
IC50 (3T3 cells): > 10 µM | IC50 (MS751 cells): < 0.1 µM | IC50 (Z138 cells): < 0.1 µM

Nc1ccc(/C=C/C(=O)NCc2cc3cc(-c4ccc(NC(=O)N5CCOCC5)cc4)cc(Cl)c3o2)cn1 [Compound 582, (E)-N-(4-(2-((3-(6-aminopyridin-3-yl)acrylamido)methyl)-7-chlorobenzofuran-5-yl)phenyl)morpholine-4-carboxamide]
IC50 (3T3 cells): > 10 µM | IC50 (MS751 cells): 5 to 10 µM | IC50 (Z138 cells): 5 to 10 µM

Nc1ccc(/C=C/C(=O)NCc2cc3cc(-c4ncc(C(=O)N5CCOCC5)cn4)cc(Cl)c3o2)cn1 [Compound 583, (E)-3-(6-aminopyridin-3-yl)-N-((7-chloro-5-(5-(morpholine-4-carbonyl)pyrimidin-2-yl)benzofuran-2-yl)methyl)acrylamide]
IC50 (3T3 cells): > 10 µM | IC50 (MS751 cells): 0.1 to 5 µM | IC50 (Z138 cells): 0.1 to 5 µM

CN1CCN(C(=O)c2ccc(-c3cc(Cl)c4oc(CNC(=O)/C=C/c5ccc(N)nc5)cc4c3)nc2)CC1 [Compound 584, (E)-3-(6-aminopyridin-3-yl)-N-((7-chloro-5-(5-(4-methylpiperazine-1-carbonyl)pyridin-2-yl)benzofuran-2-yl)methyl)acrylamide]
IC50 (3T3 cells): 5 to 10 µM | IC50 (MS751 cells): < 0.1 µM | IC50 (Z138 cells): < 0.1 µM

CN1CCN(C(=O)c2cnc(-c3cc(Cl)c4oc(CNC(=O)/C=C/c5ccc(N)nc5)cc4c3)nc2)CC1 [Compound 586]
IC50 (3T3 cells): > 10 µM | IC50 (MS751 cells): 0.1 to 5 µM | IC50 (Z138 cells): 0.1 to 5 µM

CC1(F)CN(C(=O)c2ccc(-c3cc(C(F)(F)F)c4oc(CNC(=O)/C=C/c5ccc(N)nc5)cc4c3)cc2)C1 [Compound 587, (E)-3-(6-aminopyridin-3-yl)-N-((5-(4-(3-fluoro-3-methylazetidine-1-carbonyl)phenyl)-7-(trifluoromethyl)benzofuran-2-yl)methyl)acrylamide]
IC50 (3T3 cells): > 10 µM | IC50 (MS751 cells): 0.1 to 5 µM | IC50 (Z138 cells): 0.1 to 5 µM

Nc1ccc(/C=C/C(=O)NCc2cc3cc(-c4cc(C(=O)N5CCOCC5)c(F)cn4)cc(Cl)c3o2)cn1 [Compound 588, (E)-3-(6-aminopyridin-3-yl)-N-((7-chloro-5-(5-fluoro-4-(morpholine-4-carbonyl)pyridin-2-yl)benzofuran-2-yl)methyl)acrylamide]
IC50 (3T3 cells): 0.1 to 5 µM | IC50 (MS751 cells): < 0.1 µM | IC50 (Z138 cells): < 0.1 µM

Nc1ccc(/C=C/C(=O)NCc2cc3cc(-c4ccc(C(=O)N5CCNCC5)cn4)cc(Cl)c3o2)cn1 [Compound 589, (E)-3-(6-aminopyridin-3-yl)-N-((7-chloro-5-(5-(piperazine-1-carbonyl)pyridin-2-yl)benzofuran-2-yl)methyl)acrylamide]
IC50 (3T3 cells): > 10 µM | IC50 (MS751 cells): 0.1 to 5 µM | IC50 (Z138 cells): < 0.1 µM

Nc1ccc(/C=C/C(=O)NCc2cc3cc(-c4ncc(C(=O)N5CCNCC5)cn4)cc(C(F)(F)F)c3o2)cn1 [Compound 590, (E)-3-(6-aminopyridin-3-yl)-N-((5-(5-(piperazine-1-carbonyl)pyrimidin-2-yl)-7-(trifluoromethyl)benzofuran-2-yl)methyl)acrylamide]
IC50 (3T3 cells): > 10 µM | IC50 (MS751 cells): 0.1 to 5 µM | IC50 (Z138 cells): 0.1 to 5 µM

Nc1ccc(/C=C/C(=O)NCc2cc3cc(-c4ccc(C(=O)N5CCC(F)(F)CC5)cn4)cc(Cl)c3o2)cn1 [Compound 591, (E)-3-(6-aminopyridin-3-yl)-N-((7-chloro-5-(5-(4,4-difluoropiperidine-1-carbonyl)pyridin-2-yl)benzofuran-2-yl)methyl)acrylamide]
IC50 (3T3 cells): > 10 µM | IC50 (MS751 cells): 0.1 to 5 µM | IC50 (Z138 cells): 0.1 to 5 µM

COc1cc(-c2ccc(C(=O)N3CCOCC3)cc2)cc2cc(CNC(=O)/C=C/c3ccc(N)nc3)oc12 [Compound 592, (E)-3-(6-aminopyridin-3-yl)-N-((7-methoxy-5-(4-(morpholine-4-carbonyl)phenyl)benzofuran-2-yl)methyl)acrylamide]
IC50 (3T3 cells): > 10 µM | IC50 (MS751 cells): 0.1 to 5 µM | IC50 (Z138 cells): < 0.1 µM

Nc1ccc(/C=C/C(=O)NCc2cc3cc(-c4ncc(C(=O)N5CCOCC5)cn4)cc(C(F)(F)F)c3o2)cn1 [Compound 593, (E)-3-(6-aminopyridin-3-yl)-N-((5-(5-(morpholine-4-carbonyl)pyrimidin-2-yl)-7-(trifluoromethyl)benzofuran-2-yl)methyl)acrylamide]
IC50 (3T3 cells): > 10 µM | IC50 (MS751 cells): 0.1 to 5 µM | IC50 (Z138 cells): 0.1 to 5 µM

CN1CCN(C(=O)c2cnc(-c3cc(C(F)(F)F)c4oc(CNC(=O)/C=C/c5ccc(N)nc5)cc4c3)nc2)CC1 [Compound 594, (E)-3-(6-aminopyridin-3-yl)-N-((5-(5-(4-methylpiperazine-1-carbonyl)pyrimidin-2-yl)-7-(trifluoromethyl)benzofuran-2-yl)methyl)acrylamide]
IC50 (3T3 cells): > 10 µM | IC50 (MS751 cells): 0.1 to 5 µM | IC50 (Z138 cells): 0.1 to 5 µM
